In ChEMBL document CHEMBL1177792, “Pre-clinical characterization of aryloxypyridine amides as histamine H3 receptor antagonists: identification of candidates for clinical development” (Bioorg Med Chem Lett, 2010):

Key:
Histamine H3 receptor [1] = biological target: T1, Histamine H3 receptor (Homo sapiens, UniProt Q9Y5N1); experiment: Displacement of [125I]-iodoproxyfan from human recombinant histamine H3 receptor expressed in human SK-N-MC cells after 1 hr by scintillation counting; format: cell-based
T1 sequence (Q9Y5N1 whole entry): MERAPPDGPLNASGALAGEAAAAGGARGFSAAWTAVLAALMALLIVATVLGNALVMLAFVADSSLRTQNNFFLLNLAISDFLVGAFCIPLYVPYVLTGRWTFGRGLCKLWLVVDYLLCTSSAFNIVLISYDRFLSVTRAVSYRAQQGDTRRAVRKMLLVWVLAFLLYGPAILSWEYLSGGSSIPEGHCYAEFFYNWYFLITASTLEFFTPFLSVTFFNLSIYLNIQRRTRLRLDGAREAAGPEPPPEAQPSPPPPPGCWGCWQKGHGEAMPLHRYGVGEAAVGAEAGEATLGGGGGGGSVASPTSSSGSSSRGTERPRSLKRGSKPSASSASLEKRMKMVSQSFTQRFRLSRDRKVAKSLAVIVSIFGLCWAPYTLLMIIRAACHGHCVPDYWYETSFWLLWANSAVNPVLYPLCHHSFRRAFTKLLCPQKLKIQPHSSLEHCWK

[2] = Drug level in Wistar rat brain at 10 mg/kg, po after 1 hr; format: ADME, organism-based; parameters: dose 10 mg/kg, route oral; settings: read-out: Drug uptake
[3] = Metabolic stability in rat liver microsomes assessed as compound remaining after 30 mins; format: ADME, Microsome; settings: read-out: Stability
[4] = Plasma concentration in Wistar rat at 10 mg/kg, po after 1 hr; format: ADME, organism-based; parameters: dose 10 mg/kg, route oral; settings: read-out: Drug uptake
[5] = Metabolic stability in human liver microsomes assessed as compound remaining after 30 mins; format: ADME, Microsome; settings: read-out: Stability
Rattus norvegicus = experiment: Ex vivo receptor occupancy of histamine H3 receptor in Wistar rat brain at 10 mg/kg, po after 1 hr by autoradiography; format: functional
Histamine H3 receptor [6] = biological target: T2, Histamine H3 receptor (Rattus norvegicus, UniProt Q9QYN8); experiment: Binding affinity to histamine H3 receptor in rat brain; format: tissue-based
T2 sequence (Q9QYN8 whole entry): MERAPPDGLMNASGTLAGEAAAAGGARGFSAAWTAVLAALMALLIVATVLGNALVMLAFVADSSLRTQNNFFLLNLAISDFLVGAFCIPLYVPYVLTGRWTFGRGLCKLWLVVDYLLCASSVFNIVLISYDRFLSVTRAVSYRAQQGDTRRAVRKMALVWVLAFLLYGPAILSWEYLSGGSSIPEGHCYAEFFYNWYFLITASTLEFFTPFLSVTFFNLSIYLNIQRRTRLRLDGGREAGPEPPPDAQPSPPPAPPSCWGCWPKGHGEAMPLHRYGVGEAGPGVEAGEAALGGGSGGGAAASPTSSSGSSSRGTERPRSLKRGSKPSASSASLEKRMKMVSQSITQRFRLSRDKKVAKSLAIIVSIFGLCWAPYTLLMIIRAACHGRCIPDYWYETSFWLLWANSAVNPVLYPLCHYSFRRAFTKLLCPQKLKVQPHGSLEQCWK

[7] = Bioavailability in Beagle dog at 1 mg/kg, iv and 5 mg/kg, po; format: ADME, organism-based, Canis lupus familiaris; settings: in vivo
Histamine H3 receptor [8] = biological target: T2, Histamine H3 receptor; experiment: Antagonist activity at rat histamine H3 receptor expressed in human SK-N-MC cells assessed as inhibition of forskolin-induced cAMP accumulation after 6 hrs; format: functional, cell-based; settings: read-out: pA2 (converted)
Histamine H3 receptor [9] = biological target: T1, Histamine H3 receptor; experiment: Antagonist activity at human histamine H3 receptor expressed in human SK-N-MC cells assessed as inhibition of forskolin-induced cAMP accumulation after 6 hrs; format: functional, cell-based; settings: read-out: pA2 (converted)
[10] = Volume of distribution at steady state in Sprague-Dawley rat at 1 mg/kg, iv and 10 mg/kg, po; format: ADME, organism-based; settings: in vivo, read-out: Vdss
[11] = Clearance in Sprague-Dawley rat at 1 mg/kg, iv and 10 mg/kg, po; format: ADME, organism-based; settings: in vivo
[12] = Volume of distribution at steady state in Beagle dog at 1 mg/kg, iv and 5 mg/kg, po; format: ADME, organism-based, Canis lupus familiaris; settings: in vivo, read-out: Vdss
[13] = Bioavailability in Sprague-Dawley rat at 1 mg/kg, iv and 10 mg/kg, po; format: ADME, organism-based; settings: in vivo
[14] = Half life in Sprague-Dawley rat at 1 mg/kg, iv and 10 mg/kg, po; format: ADME, organism-based; settings: in vivo
[15] = Half life in Beagle dog at 1 mg/kg, iv and 5 mg/kg, po; format: ADME, organism-based, Canis lupus familiaris; settings: in vivo
[16] = Clearance in Beagle dog at 1 mg/kg, iv and 5 mg/kg, po; format: ADME, organism-based, Canis lupus familiaris; settings: in vivo

**Q.** Which Ki (Histamine H3 receptor [1]) does the source give for `O=C(c1ccc(Oc2ccc(Cl)cc2)nc1)N1CCCN(C2CC2)CC1` here?
**A.** 13 nM

**Q.** Which results are given for `O=C(c1ccc(Sc2ccc(F)cc2)cn1)N1CCCN(C2CCC2)CC1`?
**A.** concentration at 1 h [2]: 120 nM; Ki (Histamine H3 receptor [1]): 4.6 nM; remaining at 0.5 h [3]: 7%; concentration at 1 h [4]: 30 nM; remaining at 0.5 h [5]: 82%

**Q.** Which Ki (Histamine H3 receptor [1]) does the source give for `O=C(c1ccc(Oc2ccc(F)cc2)nc1)N1CCCNCC1` here?
**A.** 9000 nM

**Q.** Which Ki (Histamine H3 receptor [1]) does the source give for `O=C(c1cncc(Oc2ccccc2)c1)N1CCCN(C2CCC2)CC1` here?
**A.** 11 nM

**Q.** For `CC(C)N1CCCN(C(=O)c2cccc(Oc3ccc(Cl)c(Cl)c3)n2)CC1`, which Ki (Histamine H3 receptor [1]) is on record?
**A.** 430 nM

**Q.** For `O=C(c1cc(Oc2ccc(F)cc2)ccn1)N1CCCN(C2CCC2)CC1`, which Ki (Histamine H3 receptor [1]) is on record?
**A.** 5.7 nM

**Q.** For `O=C(c1ccc(Sc2ccccc2)nc1)N1CCCN(C2CCC2)CC1`, which Ki (Histamine H3 receptor [1]) is on record?
**A.** 2.3 nM

**Q.** Which results are given for `O=C(c1ccc(Oc2ccc(F)cc2)cn1)N1CCCN(C2CCC2)CC1`?
**A.** Activity (Rattus norvegicus): 87%; Ki (Histamine H3 receptor [6]): 24 nM; bioavailability [7]: 14%; Kb (Histamine H3 receptor [8]): 26.3 nM; concentration at 1 h [2]: 2370 nM; Kb (Histamine H3 receptor [9]): 1.41 nM; Vd [10]: 4.5 L/kg; clearance [11]: 80 mL/min/kg; Ki (Histamine H3 receptor [1]): 2.9 nM; remaining at 0.5 h [3]: 56%; Vd [12]: 3.6 L/kg; bioavailability [13]: 23%; concentration at 1 h [4]: 1020 nM; half-life [14]: 1 h; remaining at 0.5 h [5]: 95%; half-life [15]: 1.9 h; clearance [16]: 35 mL/min/kg

**Q.** For `N#Cc1cccc(Oc2ccc(C(=O)N3CCCN(C4CC4)CC3)cn2)c1`, which Ki (Histamine H3 receptor [1]) is on record?
**A.** 12 nM

**Q.** With `CC(C)N1CCN(C(=O)c2ccc(Oc3ccccc3)nc2)CC1` as the molecule, how does the Ki (Histamine H3 receptor [1]) read?
**A.** 260 nM

**Q.** Which Ki (Histamine H3 receptor [1]) does the source give for `O=C(c1ccc(Oc2cccc(Cl)c2)cn1)N1CCCN(C2CCC2)CC1` here?
**A.** 4.7 nM

**Q.** With `O=C(c1ccc(Oc2ccccc2)nc1)N1CCCN(C2CCC2)CC1` as the molecule, how does the Ki (Histamine H3 receptor [6]) read?
**A.** 15 nM

**Q.** What about the Kb (Histamine H3 receptor [8]) of the same molecule?
**A.** 3.72 nM

**Q.** And the concentration at 1 h [2]?
**A.** 300 nM

**Q.** And the Kb (Histamine H3 receptor [9])?
**A.** 0.269 nM

**Q.** What about the Ki (Histamine H3 receptor [1]) of the same molecule?
**A.** 4.4 nM

**Q.** What about the remaining at 0.5 h [3] of the same molecule?
**A.** 90%

**Q.** And the concentration at 1 h [4]?
**A.** 210 nM

**Q.** What about the remaining at 0.5 h [5] of the same molecule?
**A.** 99%

**Q.** With `CCN1CCCN(C(=O)c2ccc(Oc3ccc(F)cc3)nc2)CC1` as the molecule, how does the Ki (Histamine H3 receptor [1]) read?
**A.** 34 nM

**Q.** Which Kb (Histamine H3 receptor [9]) does the source give for `CC(C)N1CCCN(C(=O)c2ccc(Oc3ccc(Cl)c(Cl)c3)cn2)CC1` here?
**A.** 0.309 nM

**Q.** And the Ki (Histamine H3 receptor [1])?
**A.** 1.5 nM

**Q.** With `CC(C)N1CCN(C(=O)c2ccc(Oc3ccc(Cl)cc3)nc2)CC1` as the molecule, how does the Ki (Histamine H3 receptor [1]) read?
**A.** 73 nM

**Q.** For `O=C(c1ccc(Oc2ccc(Cl)c(Cl)c2)cn1)N1CCCN(C2CC2)CC1`, which Ki (Histamine H3 receptor [1]) is on record?
**A.** 10 nM

**Q.** For `O=C(c1cccc(Oc2ccc(Cl)c(Cl)c2)n1)N1CCCN(C2CC2)CC1`, which Ki (Histamine H3 receptor [1]) is on record?
**A.** 1040 nM

**Q.** What does the source list for `O=C(c1ccc(Oc2ccc(Cl)c(Cl)c2)nc1)N1CCCN(C2CCC2)CC1`?
**A.** Activity (Rattus norvegicus): 100%; concentration at 1 h [2]: 4790 nM; Ki (Histamine H3 receptor [1]): 7.6 nM; remaining at 0.5 h [3]: 4%; concentration at 1 h [4]: 1520 nM; remaining at 0.5 h [5]: 30%

**Q.** With `O=C(c1cncc(Oc2ccc(F)cc2)c1)N1CCCN(C2CCC2)CC1` as the molecule, how does the Ki (Histamine H3 receptor [1]) read?
**A.** 17 nM

**Q.** For `O=C(c1ccc(Oc2ccc(F)cc2)nc1)N1CCCN(C2CC2)CC1`, which Kb (Histamine H3 receptor [9]) is on record?
**A.** 1.58 nM

**Q.** What about the Ki (Histamine H3 receptor [1]) of the same molecule?
**A.** 25 nM

**Q.** Which Ki (Histamine H3 receptor [1]) does the source give for `O=C(c1ccc(Oc2ccccc2Cl)nc1)N1CCN(C2CCCC2)CC1` here?
**A.** 40 nM

**Q.** For `CC(C)N1CCN(C(=O)c2ccc(Oc3ccc(F)cc3)nc2)CC1`, which Ki (Histamine H3 receptor [1]) is on record?
**A.** 79 nM
